“Also recorded” adds a separate entry of the source.
B1: VE-cadherin (other, mouse, UniProt P55284 46-784, looked up)
chain: DWIWNQMHIDEEKNESLPHYVGKIKSNVNRQNAKYVLQGEFAGKIFGVDANTGNVLAYERLDREKVSEYFLTALIVDKNTNKNLEQPSSFTVKVHDINDNWPVFSHQVFNASVPEMSAIGTSVIRVTAVDADDPTVAGHATVLYQIVKGNEYFSIDNSGLIFTKIKNLDREKQAEYKIVVETQDALGLRGESGTATVMIRLEDINDNFPVFTQSTYTFSVPEDIRVGKPLGFLTVVDPDEPQNRMTKYSIMQGEYRDTFTIETDPKRNEGIIKPTKSLDYEVIQQYTFYIEATDPTIRYEYLSSTSGKNKAMVTINVLDVDEPPVFQRHFYHFKLPENQKKPLIGTVVAKDPDKAQRSIGYSIRKTSDRGQFFRITKQGNIYNEKELDRETYAWYNLTVEANELDSRGNPVGKESIVQVYIEVLDENDNPPEFAQPYEPKVCENAAQGKLVVQISATDKDVVPVNPKFKFALKNEDSNFTLINNHDNTANITVKYGQFNREHAKFHYLPVLISDNGVPSLTGTSTLTVGVCKCNEQGEFTFCEEMAAQAGVSIQALVAIFLCILTITVITLLIILRRRIRKQAHAHSKSALEIHEQLVTYDEEGGGEMDTTSYDVSVLNSVRGGSTKPLRSTMDARPAVYTQVQKPPRLAPGLHGGPREMATMIDVKKEEADNDGGGPPYDTLHIYGYEGAESIAESLSSLSTNSSDSDIDYDFLNDWGPRFKMLAELYGSDPQEELII
notes: Endogenous protein immunoprecipitated from endothelial cell extracts with VE-cadherin antibodies (IP: VE); also called Cdh5
B2: b-catenin (other, mouse, UniProt Q02248 2-781, looked up)
chain: ATQADLMELDMAMEPDRKAAVSHWQQQSYLDSGIHSGATTTAPSLSGKGNPEEEDVDTSQVLYEWEQGFSQSFTQEQVADIDGQYAMTRAQRVRAAMFPETLDEGMQIPSTQFDAAHPTNVQRLAEPSQMLKHAVVNLINYQDDAELATRAIPELTKLLNDEDQVVVNKAAVMVHQLSKKEASRHAIMRSPQMVSAIVRTMQNTNDVETARCTAGTLHNLSHHREGLLAIFKSGGIPALVKMLGSPVDSVLFYAITTLHNLLLHQEGAKMAVRLAGGLQKMVALLNKTNVKFLAITTDCLQILAYGNQESKLIILASGGPQALVNIMRTYTYEKLLWTTSRVLKVLSVCSSNKPAIVEAGGMQALGLHLTDPSQRLVQNCLWTLRNLSDAATKQEGMEGLLGTLVQLLGSDDINVVTCAAGILSNLTCNNYKNKMMVCQVGGIEALVRTVLRAGDREDITEPAICALRHLTSRHQEAEMAQNAVRLHYGLPVVVKLLHPPSHWPLIKATVGLIRNLALCPANHAPLREQGAIPRLVQLLVRAHQDTQRRTSMGGTQQQFVEGVRMEEIVEGCTGALHILARDVHNRIVIRGLNTIPLFVQLLYSPIENIQRVAAGVLCELAQDKEAAEAIEAEGATAPLTELLHSRNEGVATYAAAVLFRMSEDKPQDYKKRLSVELTSSLFRTEPMAWNETADLGLDIGAQGEALGYRQDDPSYRSFHSGGYGQDALGMDPMMEHEMGGHHPGADYPVDGLPDLGHAQDLMDGLPPGDSNQLAWFDTDL
notes: Endogenous protein in total cell extracts, co-immunoprecipitated with VE-cadherin antibodies; also called beta-catenin; β-catenin
B3: Dkk1: murine recombinant Dkk1, competitor of Wnt co-receptor Lrp5/6 (protein)
chain: TLNSVLINSNAIKNLPPPLGGAGGQPGSAVSVAPGVLYEGGNKYQTLDNYQPYPCAEDEECGSDEYCSSPSRGAAGVGGVQICLACRKRRKRCMRHAMCCPGNYCKNGICMPSDHSHFPRGEIEESIIENLGNDHNAAAGDGYPRRTTLTSKIYHTKGQEGSVCLRSSDCAAGLCCARHFWSKICKPVLKEGQVCTKHKRKGSHGLEIFQRCYCGEGLACRIQKDHHQASNSSRLHTCQRH

Experiments:
[1] = system: CCM3-knockout (KO) endothelial cells; assay: Axin2 and S100a4 transcription in un-stimulated CCM3-knockout endothelial cells treated with Wnt pathway inhibitors; assay type: cell-based, mouse; conditions: 48 h, IWP2, IWP12 0.5, 2, 5 DM, Dkk1 0.5 uM
Description: (§1) Drugs were added to confluent cells for 48 h before the indicated assays. Final concentrations for IWP2 and IWP12, both from Sigma-Aldrich, were: 0.5, 2, 5 DM. Drugs were dissolved in DMSO, control treatment (Vehicle) was 0.1% DMSO final concentration, as for drug treatment. Murine recombinant Dkk1 (R&D) was 0.5 DM on cells.
(§2) RNA extraction was performed with RNeasy kits (74106; […]). The RNA (1 μg) was reverse transcribed with random hexamers (High Capacity cDNA Archive kits; Applied Biosystems). The cDNA was amplified with TaqMan gene expression assays (Applied Biosystems) using a 7900 HT thermocycler (ABI/Prism). For each sample, the expression levels were determined with the comparative threshold cycle (Ct) method, and normalized to the housekeeping genes encoding 18S and glyceraldehyde-3-phosphate dehydrogenase (GAPDH). For amplification, the following probes (Applied Biosystems) that have been validated to recognize the mouse transcripts in rtPCR were used: Axin2, Nkd1, Lef1, ccnd1, cMyc-Klf4, Ly6a, S100a4, Id1, Cdh2, Acta2, CD44. The probes to identify the CCM3 mRNA transcript were custom designed, as: forward, […] (SEQ ID No. 12); reverse, GCTCTGGCCGCTCAATCA (SEQ ID No. 13); reporter sequence, […] (SEQ ID No. 14).

[2] = system: CCM3-knockout endothelial cell line; assay: rtPCR of b-catenin target gene and progenitor/EndMT markers in CCM3-knockout endothelial cell line; assay type: cell-based, mouse; conditions: 48 h; 135 mM sulindac sulfide, 125 mM sulindac sulfone, 200 mM silibinin, 250 mM salinomycin
Description: In some experiments, endothelial cell lines from the lungs of CCM3-flox/flox mice (8-10 weeks old) were immortalized in culture through retroviral expression of polyoma middle T gene^60. […] These cells were then maintained in culture for up to 25 passages without detectable changes in the effects of this CCM3 ablation.
Drugs were added to confluent cells for 48 h before the indicated assays. The final concentrations used were: […] (all from Sigma-Aldrich). As all of these were dissolved in DMSO, control treatment (vehicle) was 0.1% DMSO final concentration, as for drug treatment.
as §2

[3] = system: wild-type endothelial cells; assay: Wnt3a stimulation of stem-cell/EndMT marker expression in wild-type endothelial cells; assay type: cell-based, mouse; conditions: acute stimulation (48 h); 5 ng/ml
Description: as §1, §2

b-catenin = target: B2; assay: co-immunoprecipitation with VE-cadherin antibodies and Western blot, murine endothelial cell line extracts
VE-cadherin = target: B1; assay: co-immunoprecipitation with VE-cadherin antibodies and Western blot, bands quantified with ImageJ, mean of three experiments; vehicle-KO versus vehicle-WT
Text: Active b-catenin and VE-cadherin were lost from cell-cell contacts (adherens junctions) in these CCM3-knockout endothelial cells (top main panels, XY axis; small lower panels, Z projection along X axis). The active b-catenin (KO vehicle, arrowheads) is concentrated into the nucleus (see corresponding arrowheads in DAPI stainings) (right panels). Treatment with sulindac sulfide restored the distribution of active b-catenin to the adherens junctions (right panels, sulindac sulfide, arrowheads, and small lower right panels, sulindac sulfide, small arrowheads, for distribution along Z axis) and co-localization of active b-catenin and VE-cadherin is observed (arrowheads). […] Podocalyxin is re-localized from the apical surface (left panels, WT, arrows) to be ectopically distributed on the basal side with CCM3 knockout (right panel, vehicle, arrowheads), as it has been reported for CCM1 knockout⁴⁶. Nuclei are outlined by white lines (DAPI). Sulindac sulfide re-establishes the correct apical distribution of podocalyxin (right panel, sulindac sulfide, arrows). Scale bar, […]. c. Representative Western blotting (top) and quantification (bottom) of the effects of sulindac sulfide on the co-immunoprecipitation complex of b-catenin and VE-cadherin. […] The quantification of the bands from the Western blotting was assessed as the means of three independent experiments, using ImageJ. d.

[4] = system: Wnt3a-induced stimulation of Axin2; assay: Wnt3a-induced stimulation of Axin2 in wild-type and CCM3-knockout endothelial cell lines; assay type: cell-based, mouse; conditions: Dkk1 0.5 uM
Description: as §1, §2

Molecule: Cc1ccc2nc(NC(=O)CSc3nc4c(c(=O)n3-c3ccccc3)SCC4)sc2c1 [IWP2]
b-catenin-driven activation of Axin2 and S100a4 transcription [1]: not inhibited; also recorded: did not inhibit

Molecule: Cc1ccc2nc(NC(=O)CSc3nc4c(c(=O)n3C)SC(C)C4)sc2c1 (centres unmarked) [IWP12]
b-catenin-driven activation of Axin2 and S100a4 transcription [1]: not inhibited; also recorded: did not inhibit

Molecule: CC[C@@H](C(=O)[C@@H](C)[C@@H](O)[C@H](C)[C@@H]1O[C@@H]([C@@H](CC)C(=O)O)CC[C@@H]1C)[C@H]1O[C@]2(C=C[C@@H](O)[C@]3(CC[C@@](C)([C@H]4CC[C@](O)(CC)[C@H](C)O4)O3)O2)[C@H](C)C[C@@H]1C [salinomycin]
inhibition of transcription of Axin2, Klf4 and S100a4 (rtPCR) [2]: significantly reduced only Axin2 and S100a4

Molecule: Wnt3a
induction of expression of stem-cell/EndMT markers [3]: cannot induce; also recorded: did not induce

Molecule: B1
binding result (b-catenin): binds

Molecule: B2
reduction of the b-catenin/VE-cadherin co-immunoprecipitation ratio in CCM3-knockout versus wild-type cells (VE-cadherin): 35%

Molecule: B3
Wnt3a-induced stimulation of Axin2 [4]: effectively inhibited
b-catenin-driven activation of Axin2 and S100a4 transcription [1]: not inhibited; also recorded: did not inhibit
